From the NIST ThermoML archive (doi:10.1016/j.jct.2014.09.020)

Conditions: Liquid; for speed of sound: Frequency=4 MHz, Single path-length method; for mass density: Vibrating tube method

c1ccc2c(c1)CCCC2 [1,2,3,4-tetrahydronaphthalene]
Conditions | mass density, 100 kPa [kg/m3] | speed of sound, 100 kPa [m/s] | speed of sound, 5000 kPa [m/s] | speed of sound, 10000 kPa [m/s] | speed of sound, 15000 kPa [m/s] | speed of sound, 20000 kPa [m/s] | speed of sound, 25000 kPa [m/s]
313.15 K | 952.93 | 1413 | 1434 | 1455 | 1475 | 1495 | 1513
323.15 K | 944.99 | 1374 | 1397 | 1419 | 1439 | 1459 | 1480
333.15 K | 937.04 | 1335 | 1359 | 1383 | 1402 | 1425 | 1445

CCCCCCCCCC [decane]
Conditions | mass density, 100 kPa [kg/m3] | speed of sound, 100 kPa [m/s] | speed of sound, 5000 kPa [m/s] | speed of sound, 10000 kPa [m/s] | speed of sound, 15000 kPa [m/s] | speed of sound, 20000 kPa [m/s] | speed of sound, 25000 kPa [m/s]
313.15 K | 714.87 | 1177 | 1209 | 1243 | 1274 | 1303 | 1327
323.15 K | 707.2 | 1139 | 1174 | 1207 | 1238 | 1269 | 1296
333.15 K | 699.47 | 1099 | 1134 | 1171 | 1204 | 1234 | 1264
